Assay results from patent publication US20250154134A1, “COMPOUND AS FAK INHIBITOR AND USE THEREOF” (WIGEN BIOMEDICINE TECHNOLOGY (SHANGHAI) CO., LTD., priority 2022, published 2025).

Tests used:
[1] = system: PC3 cells; test: PC3 cell proliferation, 3D activity assay (3D culture, 14 days); assay type: cell-based, human; conditions: Homo sapiens, PC-3, 336 h, read-out: 3D inhibitory activity against PC3 cells IC50
Procedure: (§1) 2D activity assay: 1200 PC3 cells were seeded in a 96-well plate. After overnight adherence culture, A compound serially diluted was added. […] The growth of the cells was evaluated, and the IC50 of the compound inhibiting cell growth was calculated. 3D activity assay: PC3 cells were seeded in a 96-well plate at 1200 cells/well, and 3D culture was performed. 14 days after a compound serially diluted was added, the growth of the cells was measured. The inhibition percentage and IC50 of the compound were calculated compared to the DMSO control group.

[2] = system: PC3 cells; test: PC3 cell proliferation, 2D activity assay (Cell Titer-Lumi, 72 h); assay type: cell-based, human; conditions: Homo sapiens, PC-3, read-out: 2D inhibitory activity against PC3 cells IC50
Procedure: as §1

[3] = molecular target: FAK recombinant protein (Homo sapiens (Human), UniProt Q05397); test: Inhibitory activity against FAK enzyme (HTRF, TK substrate); assay type: biochemical
Procedure: A compound serially diluted with DMSO was mixed with a FAK recombinant protein. After the mixture was left to stand at room temperature for 10 min, a biotin-labeled TK substrate (TK) and ATP were added. […] The inhibition percentage and IC50 of the compound were calculated compared to the DMSO control group.

Sequence of FAK recombinant protein (Q05397 whole entry): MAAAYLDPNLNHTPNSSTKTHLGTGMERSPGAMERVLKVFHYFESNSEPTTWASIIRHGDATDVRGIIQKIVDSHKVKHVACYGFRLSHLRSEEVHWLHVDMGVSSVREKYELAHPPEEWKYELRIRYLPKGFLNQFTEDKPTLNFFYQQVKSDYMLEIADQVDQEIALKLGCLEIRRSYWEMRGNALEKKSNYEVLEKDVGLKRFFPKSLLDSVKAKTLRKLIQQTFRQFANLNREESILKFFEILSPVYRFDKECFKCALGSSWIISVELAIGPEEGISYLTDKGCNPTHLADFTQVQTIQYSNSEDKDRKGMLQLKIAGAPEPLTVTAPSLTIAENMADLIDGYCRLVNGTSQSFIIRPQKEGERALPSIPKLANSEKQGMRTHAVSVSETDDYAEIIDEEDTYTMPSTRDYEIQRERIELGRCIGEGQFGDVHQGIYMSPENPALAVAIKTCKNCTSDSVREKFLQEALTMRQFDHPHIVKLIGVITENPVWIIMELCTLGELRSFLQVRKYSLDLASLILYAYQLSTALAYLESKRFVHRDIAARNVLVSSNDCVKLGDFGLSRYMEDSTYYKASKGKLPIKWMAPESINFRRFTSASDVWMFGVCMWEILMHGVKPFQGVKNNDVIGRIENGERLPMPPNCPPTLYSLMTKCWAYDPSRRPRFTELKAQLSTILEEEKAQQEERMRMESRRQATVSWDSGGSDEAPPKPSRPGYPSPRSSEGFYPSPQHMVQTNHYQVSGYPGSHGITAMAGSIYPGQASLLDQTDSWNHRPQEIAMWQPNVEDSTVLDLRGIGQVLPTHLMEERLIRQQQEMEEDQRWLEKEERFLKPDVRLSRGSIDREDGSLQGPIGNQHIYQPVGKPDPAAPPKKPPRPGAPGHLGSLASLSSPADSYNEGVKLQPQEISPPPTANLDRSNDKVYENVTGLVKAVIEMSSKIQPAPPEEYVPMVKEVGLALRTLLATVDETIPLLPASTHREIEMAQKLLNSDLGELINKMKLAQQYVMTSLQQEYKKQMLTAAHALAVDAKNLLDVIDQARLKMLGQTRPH

SMILES	IC50 [1]	IC50 [2]	IC50 [3]
COc1cc2c(cc1Nc1ncc(C(F)(F)F)c(Oc3cccc4c3C(=O)N(C)C43CC3)n1)CN(C)C(=O)C2 [Compound 90]	5 to 50 nM	> 2000 nM	< 20 nM
Cc1c(Nc2ncc(C(F)(F)F)c(Oc3cccc4c3C(=O)N(C)C43CC3)n2)nn2c1CCC2 [Compound 93]	5 to 50 nM	> 2000 nM	< 20 nM
CN1C(=O)c2c(Oc3nc(Nc4cc5n(n4)CCOC5)ncc3C(F)(F)F)cccc2C12CC2 [Compound 94]	< 5 nM	> 2000 nM	< 20 nM
CN1C(=O)c2c(Oc3nc(Nc4cnn5c4COCC5)ncc3C(F)(F)F)cccc2C12CC2 [Compound 95]	5 to 50 nM	> 2000 nM	< 20 nM
CN1CCn2nc(Nc3ncc(C(F)(F)F)c(Oc4cccc5c4C(=O)N(C)C54CC4)n3)cc2C1 [Compound 96]	< 5 nM	> 2000 nM	< 20 nM
CN1CCC(n2ccc(Nc3ncc(C(F)(F)F)c(Oc4cccc5c4C(=O)N(C)C54CC4)n3)n2)CC1 [Compound 97]	5 to 50 nM	> 2000 nM	< 20 nM
Cc1cn(C2CCN(C)CC2)nc1Nc1ncc(C(F)(F)F)c(Oc2cccc3c2C(=O)N(C)C32CC2)n1 [Compound 98]	5 to 50 nM	> 2000 nM	< 20 nM
COc1cc(C(=O)NC2CCN(C)CC2)ccc1Nc1ncc(C(F)(F)F)c(Cc2cccc3c2C(=O)N(C)C32CC2)n1 [Compound 99, 3-methoxy-4-((4-((2′-methyl-3′-oxospiro[cyclopropane-1,1′-isoindolin]-4′-yl)methyl)-5-(trifluoromethyl)pyrimidin-2-yl)amino)-N-(1-methylpiperidin-4-yl)benzamide]	5 to 50 nM	> 2000 nM	< 20 nM
COc1cc(C(=O)NC2CCN(C)CC2)c(F)cc1Nc1ncc(C(F)(F)F)c(Cc2cccc3c2C(=O)N(C)C32CC2)n1 [Compound 100, 2-fluoro-5-methoxy-4-((4-((2′-methyl-3′-oxospiro[cyclopropane-1,1′-isoindolin]-4′-yl)methyl)-5-(trifluoromethyl)pyrimidin-2-yl)amino)-N-(1-methylpiperidin-4-yl)benzamide]	5 to 50 nM	> 2000 nM	< 20 nM
COc1cc(C(=O)NC2CC3(CCN(C)CC3)C2)ccc1Nc1ncc(C(F)(F)F)c(Cc2cccc3c2C(=O)N(C)C32CC2)n1 [Compound 101, 3-methoxy-4-((4-((2′-methyl-3′-oxospiro[cyclopropane-1,1′-isoindolin]-4′-yl)methyl)-5-(trifluoromethyl)pyrimidin-2-yl)amino)-N-(7-methyl-7-azaspiro[3.5]nonan-2-yl)benzamide]	5 to 50 nM	> 2000 nM	< 20 nM
COc1cc(C(=O)NC2CC3(CCN(C)CC3)C2)c(F)cc1Nc1ncc(C(F)(F)F)c(Cc2cccc3c2C(=O)N(C)C32CC2)n1 [Compound 102]	5 to 50 nM	> 2000 nM	< 20 nM
COc1cc(C(=O)NC2CCC3(CC2)CN(C)C3)ccc1Nc1ncc(C(F)(F)F)c(Cc2cccc3c2C(=O)N(C)C32CC2)n1 [Compound 103]	5 to 50 nM	> 2000 nM	< 20 nM
COc1cc(C(=O)NC2CCC3(CCN(C)C3)C2)ccc1Nc1ncc(C(F)(F)F)c(Cc2cccc3c2C(=O)N(C)C32CC2)n1 (stereo not drawn) [Compound 104]	5 to 50 nM	> 2000 nM	< 20 nM
COc1cc(C(=O)NC2COC3(CCN(C)C3)C2)ccc1Nc1ncc(C(F)(F)F)c(Cc2cccc3c2C(=O)N(C)C32CC2)n1 (stereo not drawn) [Compound 105]	5 to 50 nM	> 2000 nM	< 20 nM
COc1cc(C(=O)NC2CCC3(CC2)CCN(C)C3)ccc1Nc1ncc(C(F)(F)F)c(Cc2cccc3c2C(=O)N(C)C32CC2)n1 (stereo not drawn) [Compound 106]	5 to 50 nM	> 2000 nM	< 20 nM
COc1cc(C(=O)NC2CCC3(CC2)CCN(C)CC3)ccc1Nc1ncc(C(F)(F)F)c(Cc2cccc3c2C(=O)N(C)C32CC2)n1 [Compound 107]	> 50 nM	> 2000 nM	< 20 nM
COc1cc(C(=O)NC2CCC23CCN(C)CC3)ccc1Nc1ncc(C(F)(F)F)c(Cc2cccc3c2C(=O)N(C)C32CC2)n1 (stereo not drawn) [Compound 108]	5 to 50 nM	> 2000 nM	< 20 nM
COc1cc(C(=O)NC2CCC3(CC2)CCN3C)ccc1Nc1ncc(C(F)(F)F)c(Cc2cccc3c2C(=O)N(C)C32CC2)n1 (stereo not drawn) [Compound 109]	5 to 50 nM	> 2000 nM	< 20 nM
COc1cc(C(=O)NC2CCN3CCN(C)C3C2)ccc1Nc1ncc(C(F)(F)F)c(Cc2cccc3c2C(=O)N(C)C32CC2)n1 (stereo not drawn) [Compound 110]	> 50 nM	> 2000 nM	< 20 nM
COc1cc(N2CCOCC2)ccc1Nc1ncc(C(F)(F)F)c(Cc2cccc3c2C(=O)N(C)C32CC2)n1 [Compound 112]	5 to 50 nM	> 2000 nM	< 20 nM
COc1cc(N2CCN(CC(=O)N(C)C)CC2)c(F)cc1Nc1ncc(C(F)(F)F)c(Oc2cccc3c2C(=O)N(C)C32CC2)n1 [Compound 124]	< 5 nM	> 2000 nM	< 20 nM
COc1cc(N2CC3(CN(C)C3)C2)c(F)cc1Nc1ncc(C(F)(F)F)c(Oc2cccc3c2C(=O)N(C)C32CC2)n1 [Compound 125]	< 5 nM	> 2000 nM	< 20 nM
COc1cc(N2CCC3(CCN(C)C3)C2)c(F)cc1Nc1ncc(C(F)(F)F)c(Oc2cccc3c2C(=O)N(C)C32CC2)n1 (stereo not drawn) [Compound 127]	< 5 nM	> 2000 nM	< 20 nM
COc1cc(N2CCC(N(C)C)CC2)c(F)cc1Nc1ncc(C(F)(F)F)c(Oc2cccc3c2C(=O)N(C)C32CC2)n1 [Compound 128]	< 5 nM	> 2000 nM	< 20 nM
COc1cc(N2CCN(C)CC2=O)c(F)cc1Nc1ncc(C(F)(F)F)c(Oc2cccc3c2C(=O)N(C)C32CC2)n1 [Compound 129]	5 to 50 nM	> 2000 nM	< 20 nM

The next lines start with the values.

IC50 [1]	IC50 [2]	IC50 [3]	SMILES
5 to 50 nM	> 2000 nM	< 20 nM	COc1cc(N2CCN(C)CC2)ccc1Nc1ncc(C(F)(F)F)c(Cc2cccc3c2C(=O)N(C)C32CC2)n1 [Compound 111]
5 to 50 nM	> 2000 nM	< 20 nM	COc1cc(N2CCC(N3CCN(C)CC3)CC2)ccc1Nc1ncc(C(F)(F)F)c(Cc2cccc3c2C(=O)N(C)C32CC2)n1 [Compound 113]
> 50 nM	> 2000 nM	< 20 nM	COc1cc(C(=O)NC2CCN(C)CC2)ccc1Nc1ncc(C)c(Oc2cccc3c2C(=O)N(C)C32CC2)n1 [Compound 115]
5 to 50 nM	> 2000 nM	< 20 nM	COc1cc(C(=O)NC2CCN(C)CC2)ccc1Nc1ncc(Br)c(Oc2cccc3c2C(=O)N(C)C32CC2)n1 [Compound 116]
< 5 nM	> 2000 nM	< 20 nM	COc1cc(C2CCN(C)CC2)c(F)cc1Nc1ncc(C(F)(F)F)c(Oc2cccc3c2C(=O)N(C)C32CC2)n1 [Compound 119, 4′-((2-((5-fluoro-2-methoxy-4-(1-methylpiperidin-4-yl)phenyl)amino)-5-(trifluoromethyl)pyrimidin-4-yl)oxy)-2′-methylspiro[cyclopropane-1,1′-isoindolin]-3′-one]
< 5 nM	> 2000 nM	< 20 nM	COc1cc(N2CCN(C)CC2)c(F)cc1Nc1ncc(C(F)(F)F)c(Oc2cccc3c2C(=O)N(C)C32CC2)n1 [Compound 122]
< 5 nM	> 2000 nM	< 20 nM	COCCN1CCN(c2cc(OC)c(Nc3ncc(C(F)(F)F)c(Oc4cccc5c4C(=O)N(C)C54CC4)n3)cc2F)CC1 [Compound 123]
< 5 nM	> 2000 nM	< 20 nM	COc1cc(N2CCC3(CC2)CN(C)C3)c(F)cc1Nc1ncc(C(F)(F)F)c(Oc2cccc3c2C(=O)N(C)C32CC2)n1 [Compound 126]
5 to 50 nM	> 2000 nM	< 20 nM	COc1cc(N2CCN(C)CC2)ccc1Nc1ncc(C2CC2)c(Oc2cccc3c2C(=O)N(C)C32CC2)n1 [Compound 130, 4′-((5-cyclopropyl-2-((2-methoxy-4-(4-methylpiperazin-1-yl)phenyl)amino)pyrimidin-4-yl)oxy)-2′-methylspiro[cyclopropane-1,1′-isoindolin]-3′-one]
5 to 50 nM	> 2000 nM	< 20 nM	COc1cc(N2CC3(CCN(C)CC3)C2)ccc1Nc1ncc(C2CC2)c(Oc2cccc3c2C(=O)N(C)C32CC2)n1 [Compound 131, 4′-((5-cyclopropyl-2-((2-methoxy-4-(7-methyl-2,7-diazaspiro[3.5]nonan-2-yl)phenyl)amino)pyrimidin-4-yl)oxy)-2′-methylspiro[cyclopropane-1,1′-isoindolin]-3′-one]
5 to 50 nM	> 2000 nM	< 20 nM	COc1cc(C(=O)NC2CC3(CCN(C)CC3)C2)c(F)cc1Nc1ncc(Cl)c(Oc2cccc3c2C(=O)N(C)C32CC2)n1 [Compound 132, 4-((5-chloro-4-((2′-methyl-3′-oxospiro[cyclopropane-1,1′-isoindolin]-4′-yl)oxy)pyrimidin-2-yl)amino)-2-fluoro-5-methoxy-N-(7-methyl-7-azaspiro[3.5]nonan-2-yl)benzamide]
